Bridge positions count the residues as written; N and C are the ends. Peptide text beside a SMILES is read from it.
Tests used:
[1] = system: signaling proteins in 4T1 MCT cells; test: Western blot analysis, 4T1 cells; assay type: cell-based, murine
Procedure: Next, VEGFR2 signaling was investigated in 4T1 MCTs. […] Considering the implication of the PI3K/AKT/mTOR signaling pathway in most human cancers, the effect of C-VGB3 on this pathway was evaluated in 4T1 MCT cells. […] The NF-κB pathway is an important target of AKT, which contributes to abnormal cell proliferation and differentiation, the inhibition of apoptosis, enhanced metastasis, and treatment resistance. Therefore, the inhibition of upstream AKT signaling would be expected to downregulate NF-κB and/or p-NF-κB.
The levels of signaling proteins were investigated by the Western blot assay. 4T1 and HUVE cells stimulated by VEGF (20 ng·mL^−1) were treated with (0.40 μM) or without C-VGB3 (treatment and control groups, respectively) after starvation in a serum-free medium for 24 h. After washing with PBS buffer twice, the cells were treated with RIPA lysis buffer containing (Sigma, St. Louis, MO, USA). Bradford′s test was performed to estimate the protein concentration. Equal amounts of total protein were electrophoresed on a 10% SDS-polyacrylamide gel, separated, and then transferred to a nitrocellulose membrane. Nitrocellulose was soaked in a blocking buffer containing 5% dry milk, Tris-buffered saline, and Tween 20 (TBST) for 1 h at ambient temperature. The nitrocellulose membrane was then washed with wash buffer and treated with antibodies against VEGFR2 p-VEGFR2, AKT, p-AKT, PI3K, mTOR, p-mTOR, NF-κB, p-NFκB, P53, MDM2, Bax, Bcl2, Bid, Bim, Apaf-1, cytochrome c, caspase-9, Fas (CD95), DR4 (CD261), DR5 (CD262), caspase3, caspase7, caspase8, PARP1, ERK 1/2, p-ERK1/2, Ras, Raf, Cdk4, GSK-3β, cyclin D1, vimentin, N-cadherin, E-cadherin, FAK, p-FAK, paxillin, p-paxillin, and β-actin overnight at 4 °C. The next steps were performed as described previously. Because molecular weight ranges of target signaling proteins are very close, individual gels were run for separate signaling proteins (Figure S7).

[2] = system: extracellular domain of VEGFR2 (KDR); test: ELISA-based displacement (competition binding) of biotinylated VEGF from VEGFR2; conditions: ELISA, n = 3
Procedure: Figure 3 The binding affinity of C-VGB3 to VEGFR2. (A) ELISA-based displacement assay. The gradient concentrations of C-VGB3 (0, 0.316, 1, 3.16, 10, 31.6, 100, and 316 μM) were used in the assay. […] Error bars denote ± SEM. n = 3; ** p = 0.001, *** p = 0.0001, **** p < 0.0001, ns = not significant; one-way ANOVA. (B) A three-dimensional (produced by UCSF chimera software version 1.12) and a two-dimensional representation (produced by LigPlot software) of interactions in the C-VGB3/VEGFR2 complex is shown on the left and the right, respectively.
A displacement assay was conducted as reported previously with some modifications, including using 20 ng of the VEGFR2 extracellular domains (R&D Systems, Minneapolis, MN, USA). Peptide compounds were assayed three times per experiment.
Figure S6. Evaluating the binding capability of L-VGB3 to VEGFR2
(A) ELISA-based displacement assay. The gradient concentrations of L-VGB3 (3.16, 10, […]
to the extracellular domain of VEGFR2 at applied concentrations. (B) Two-dimensional representation of interactions (produced by LigPlot software) in L-VGB3/VEGFR2 […]

**Q.** For CC(C)C[C@@H]1NC(=O)CNC(=O)[C@H](CC(=O)O)NC(=O)[C@H](CC(=O)O)NC(=O)[C@@H]2CCCN2C(=O)[C@@H]2CCCN2C(=O)[C@H](CCCNC(=N)N)NC(=O)[C@@H](NC(=O)[C@@H](N)CCC(=O)O)CSSC[C@@H](C(=O)O)NC1=O [C-VGB3] (H-ECRPPDDGLC-OH; disulfide 2-10), which “increase in cleaved PARP1” value ([1]; 4T1 (second of 'respectively'), 0.40 μM, p < 0.0001) is on record?
**A.** 4.05 fold

**Q.** What about the Fas expression ([1]; 4T1, 0.40 μM) of the same molecule?
**A.** not affected

**Q.** What about the “increase in Bax/Bcl2 ratio” value ([1]; 4T1, 0.40 μM) of the same molecule?
**A.** ~5.25 fold

**Q.** And the “increased level of cleaved caspase-3” value ([1]; 4T1, 0.40 μM)?
**A.** 4.0 times

**Q.** What about the “increased level of cleaved caspase-7” value ([1]; 4T1, 0.40 μM) of the same molecule?
**A.** 4.1 times

**Q.** And the “increased level of cleaved caspase-9” value ([1]; 4T1, 0.40 μM)?
**A.** 3.5 times

**Q.** And the Bax level ([1]; 4T1, 0.40 μM, p < 0.0001)?
**A.** increased

**Q.** And the DR4 level ([1]; 4T1, 0.40 μM, p < 0.0001)?
**A.** increase

**Q.** And the MDM2 level ([1]; 4T1, 0.40 μM, p < 0.0001)?
**A.** markedly decreased

**Q.** What about the P53 level ([1]; 4T1, 0.40 μM, p < 0.0001) of the same molecule?
**A.** enormously increased

**Q.** And the VEGFR2 level ([1]; 4T1, 0.40 μM, p < 0.0001)?
**A.** suppressed

**Q.** And the paxillin ([1]; 4T1, 0.40 μM, p < 0.0001)?
**A.** substantially inhibited

**Q.** What about the p-VEGFR2 level ([1]; 4T1, 0.40 μM, p = 0.0001) of the same molecule?
**A.** suppressed

**Q.** What about the p-paxillin ([1]; 4T1, 0.40 μM, p = 0.0001) of the same molecule?
**A.** substantially inhibited

**Q.** And the Apaf-1 ([1]; 4T1, 0.40 μM, p = 0.001)?
**A.** promoted

**Q.** What about the Bcl2 expression ([1]; 4T1, 0.40 μM, p = 0.001) of the same molecule?
**A.** decrease

**Q.** And the Bid expression level ([1]; 4T1, 0.40 μM, p = 0.001)?
**A.** increased

**Q.** What about the DR5 level ([1]; 4T1, 0.40 μM, p = 0.001) of the same molecule?
**A.** increase

**Q.** What about the E-cadherin expression ([1]; 4T1, 0.40 μM, p = 0.001) of the same molecule?
**A.** potently increased

**Q.** And the FAK ([1]; 4T1, 0.40 μM, p = 0.001)?
**A.** substantially inhibited

**Q.** And the N-cadherin level ([1]; 4T1, 0.40 μM, p = 0.001)?
**A.** reduced

**Q.** What about the p-AKT level ([1]; 4T1, 0.40 μM, p = 0.001) of the same molecule?
**A.** significantly decreased

**Q.** And the p-FAK ([1]; 4T1, 0.40 μM, p = 0.001)?
**A.** substantially inhibited

**Q.** What about the p-mTOR level ([1]; 4T1, 0.40 μM, p = 0.001) of the same molecule?
**A.** significantly decreased

**Q.** What about the Bim level ([1]; 4T1, 0.40 μM, p = 0.02) of the same molecule?
**A.** increased

**Q.** What about the NF-κB level ([1]; 4T1, 0.40 μM, p = 0.02) of the same molecule?
**A.** decreased levels

**Q.** What about the PI3K level ([1]; 4T1, 0.40 μM, p = 0.02) of the same molecule?
**A.** significantly decreased

**Q.** And the cytochrome c release ([1]; 4T1, 0.40 μM, p = 0.02)?
**A.** promoted

**Q.** And the mTOR level ([1]; 4T1, 0.40 μM, p = 0.02)?
**A.** significantly decreased

**Q.** What about the p-NF-κB level ([1]; 4T1, 0.40 μM, p = 0.02) of the same molecule?
**A.** decreased levels

**Q.** And the vimentin level ([1]; 4T1, 0.40 μM, p = 0.02)?
**A.** reduced

**Q.** What about the “inhibition of binding of bt-VEGF to KDR” value ([2]; 0-316 μM) of the same molecule?
**A.** inhibits the binding of biotinylated VEGF (bt-VEGF) to KDR dose-dependently

**Q.** What about the “displacement of btVEGF165” value ([2]; 100 μM, ectodomain of VEGFR2) of the same molecule?
**A.** 58%

Source: publication PMC10305181, “A VEGFB-Based Peptidomimetic Inhibits VEGFR2-Mediated PI3K/Akt/mTOR and PLCγ/ERK Signaling and Elicits Apoptotic, Antiangiogenic, and Antitumor Activities” (Pharmaceuticals, 2023)
